Experimental data reported in patent US6956043B2, “Pharmaceutical compositions comprising 33-epi-chloro-33-desoxy-ascomycin solid dispersions” (Novartis AG, priority 1995, dated 2005).

Tests used:
[1] = Relative bioavailability study in fasted beagle dogs; type: in vivo; conditions: 1 mg/kg, hard gelatin capsules each containing 10 mg compound X
Protocol: Hard gelatin capsules each containing 10 mg compound X were administered to 8 dogs in a 4-way latin square design; the dogs were fed 6 hours post administration of the capsules, and blood levels of compound X were determined over 48 hours.

Dissolution rate test = type: physicochemical; conditions: stirring in 0.2 wt % sodium dodecylsulfate in water at 37° C., 10 mg compound Y, after 30 minutes
Protocol: Forms E, F and G are tested for respective dissolution rates. […] 92% available compound Y is released from Form E. This compares with approximately 5% release after 30 minutes from an equivalent amount of crystalline compound Y.

Median peak levels [1] [ng/mL]	median AUC levels of 0-48 hr [1]	available compound Y released and dissolved (Dissolution rate test)	Structure (SMILES)
140	ca. 1600 ng.h/ml		CO[C@H]1C[C@@H]2CC[C@@H](C)[C@@](O)(O2)C(=O)C(=O)N2CCCC[C@H]2C(=O)O[C@H]([C@H](C)C[C@@H]2CC[C@@H](OCCO)[C@H](OC)C2)CC(=O)[C@H](C)/C=C(\C)[C@@H](O)[C@@H](OC)C(=O)[C@H](C)C[C@H](C)/C=C/C=C/C=C/1C [Compound X, 40-O-(2-hydroxy)ethyl rapamycin]
		approximately 5%	CC[C@@H]1/C=C(\C)C[C@H](C)C[C@H](OC)[C@H]2O[C@@](O)(C(=O)C(=O)N3CCCC[C@H]3C(=O)O[C@H](/C(C)=C/[C@@H]3CC[C@H](Cl)[C@H](OC)C3)[C@H](C)[C@@H](O)CC1=O)[C@H](C)C[C@@H]2OC [crystalline compound Y, 33-epi-chloro-33-desoxy-ascomycin]
